Experimental data reported in paper PMC3692398 (Biochemical pharmacology, 2013).
Read-outs that look alike come from different tables or passages of the source.

How the values were obtained:
hNET [1] = target: T1, hNET (Homo sapiens, UniProt P23975); assay: cell-based; assay type: cell-based
hSERT [2] = target: T2, hSERT (Homo sapiens, UniProt P31645); assay: Superfusion release of preloaded [3H]5-HT from HEK-hSERT cells; assay type: cell-based
[3] = blood from heart, periphery, and femoral veins; postmortem cases; ref [32];[33];[34]; cited from earlier work
h5-HT2A receptor [4] = target: T3, h5-HT2A receptor (Homo sapiens, UniProt P28223); assay: [125I]DOI binding, HEK-h5-HT2A
T3 sequence (P28223 whole entry): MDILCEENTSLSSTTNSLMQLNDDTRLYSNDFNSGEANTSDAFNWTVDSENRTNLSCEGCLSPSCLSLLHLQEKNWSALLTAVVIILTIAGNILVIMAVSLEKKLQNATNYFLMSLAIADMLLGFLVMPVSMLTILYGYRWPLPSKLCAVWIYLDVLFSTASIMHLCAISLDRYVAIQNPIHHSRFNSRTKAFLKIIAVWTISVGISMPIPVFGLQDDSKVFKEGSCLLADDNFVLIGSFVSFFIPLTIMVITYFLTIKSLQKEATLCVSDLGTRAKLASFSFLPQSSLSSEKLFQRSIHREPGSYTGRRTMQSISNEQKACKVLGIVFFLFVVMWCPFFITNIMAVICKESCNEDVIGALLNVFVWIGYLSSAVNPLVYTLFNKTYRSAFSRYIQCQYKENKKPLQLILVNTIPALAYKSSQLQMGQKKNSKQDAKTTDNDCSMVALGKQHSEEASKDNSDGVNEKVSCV

hVMAT2 [5] = target: T4, hVMAT2 (Homo sapiens, UniProt Q05940); assay: Inhibition of [3H]DHTB binding, HEK-hVMAT2 membranes
T4 sequence (Q05940 whole entry): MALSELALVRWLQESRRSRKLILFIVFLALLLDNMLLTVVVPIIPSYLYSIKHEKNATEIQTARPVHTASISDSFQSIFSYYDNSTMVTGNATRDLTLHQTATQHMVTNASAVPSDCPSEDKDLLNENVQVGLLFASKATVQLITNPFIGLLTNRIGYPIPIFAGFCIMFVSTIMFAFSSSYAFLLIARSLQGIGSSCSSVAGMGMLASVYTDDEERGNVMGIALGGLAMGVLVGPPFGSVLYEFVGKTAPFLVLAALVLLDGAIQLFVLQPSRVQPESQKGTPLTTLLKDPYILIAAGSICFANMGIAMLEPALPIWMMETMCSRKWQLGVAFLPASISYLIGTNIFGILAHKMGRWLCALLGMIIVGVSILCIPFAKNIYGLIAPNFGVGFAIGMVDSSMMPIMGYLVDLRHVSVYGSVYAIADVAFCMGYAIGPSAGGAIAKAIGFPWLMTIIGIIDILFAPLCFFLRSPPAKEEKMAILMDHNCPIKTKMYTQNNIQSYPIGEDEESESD

h5-HT2C receptor [6] = target: T5, h5-HT2C receptor (Homo sapiens, UniProt P28335); assay: biochemical; assay type: binding
T5 sequence (P28335 33-458): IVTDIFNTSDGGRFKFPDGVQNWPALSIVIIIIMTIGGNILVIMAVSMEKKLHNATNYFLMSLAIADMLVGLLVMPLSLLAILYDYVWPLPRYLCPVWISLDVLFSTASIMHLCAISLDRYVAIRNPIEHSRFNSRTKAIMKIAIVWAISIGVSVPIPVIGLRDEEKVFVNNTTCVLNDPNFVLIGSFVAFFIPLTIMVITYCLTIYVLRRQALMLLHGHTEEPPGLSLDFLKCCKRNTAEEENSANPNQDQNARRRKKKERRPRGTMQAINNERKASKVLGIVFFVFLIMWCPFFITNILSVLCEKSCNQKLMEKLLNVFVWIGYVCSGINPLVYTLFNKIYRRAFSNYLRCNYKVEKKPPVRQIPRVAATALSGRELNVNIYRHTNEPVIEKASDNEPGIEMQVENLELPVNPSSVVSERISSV

hNET [7] = target: T1, hNET; assay: biochemical; assay type: binding
hVMAT2 [8] = target: T4, hVMAT2; assay: Inhibition of [3H]5-HT uptake, HEK-hVMAT2 membrane preparation; assay type: biochemical
hSERT [9] = target: T2, hSERT; assay: Inhibition of [125I]RTI-55 binding, HEK-hSERT membranes
h5-HT1A receptor [10] = target: T6, h5-HT1A receptor (Homo sapiens, UniProt P08908); assay: [3H]8-OH-DPAT binding, HEK-h5-HT1A
T6 sequence (P08908 1-422): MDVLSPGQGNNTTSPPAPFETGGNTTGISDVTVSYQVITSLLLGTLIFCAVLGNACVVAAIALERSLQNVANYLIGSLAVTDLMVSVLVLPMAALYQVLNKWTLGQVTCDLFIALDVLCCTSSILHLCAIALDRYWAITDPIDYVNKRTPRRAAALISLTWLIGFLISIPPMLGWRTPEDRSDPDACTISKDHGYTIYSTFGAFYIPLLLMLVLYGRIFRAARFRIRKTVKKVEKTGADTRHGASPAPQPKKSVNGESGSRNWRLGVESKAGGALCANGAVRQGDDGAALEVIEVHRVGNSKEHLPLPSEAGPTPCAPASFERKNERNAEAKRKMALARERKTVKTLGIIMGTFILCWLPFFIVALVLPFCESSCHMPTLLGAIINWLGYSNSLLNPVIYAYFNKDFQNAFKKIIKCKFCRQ

hSERT [11] = target: T2, hSERT; assay: Inhibition of [3H]5-HT uptake, intact HEK-hSERT cells; assay type: cell-based
h5-HT2C receptor [12] = target: T5, h5-HT2C receptor; assay: Inhibition of 5-HT-stimulated IP-1 formation; assay type: cell-based
hDAT [13] = target: T7, hDAT (Homo sapiens, UniProt Q01959); assay: Inhibition of [3H]DA uptake, intact HEK-hDAT cells; assay type: cell-based
T7 sequence (Q01959 whole entry): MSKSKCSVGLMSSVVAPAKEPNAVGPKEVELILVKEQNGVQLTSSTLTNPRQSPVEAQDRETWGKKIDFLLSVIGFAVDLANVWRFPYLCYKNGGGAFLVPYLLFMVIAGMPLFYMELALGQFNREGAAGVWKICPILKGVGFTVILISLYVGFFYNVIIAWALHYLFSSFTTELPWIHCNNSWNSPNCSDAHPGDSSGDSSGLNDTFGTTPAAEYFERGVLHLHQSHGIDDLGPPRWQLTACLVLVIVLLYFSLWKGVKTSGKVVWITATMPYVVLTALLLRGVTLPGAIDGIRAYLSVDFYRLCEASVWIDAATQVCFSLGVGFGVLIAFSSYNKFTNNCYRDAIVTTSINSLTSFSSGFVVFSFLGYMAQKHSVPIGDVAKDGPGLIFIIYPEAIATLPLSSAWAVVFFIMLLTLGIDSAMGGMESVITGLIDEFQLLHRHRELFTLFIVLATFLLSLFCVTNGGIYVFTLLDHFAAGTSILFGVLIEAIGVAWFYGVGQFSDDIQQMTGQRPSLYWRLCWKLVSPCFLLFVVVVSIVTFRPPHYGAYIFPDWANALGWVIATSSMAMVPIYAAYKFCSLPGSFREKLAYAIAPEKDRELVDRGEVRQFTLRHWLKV

h5-HT1A receptor [14] = target: T6, h5-HT1A receptor; assay: Stimulation of [35S]GTPγS binding, HEK-h5-HT1A membranes; assay type: biochemical
hDAT [15] = target: T7, hDAT; assay: Inhibition of [125I]RTI-55 binding, HEK-hDAT membranes
h5-HT2A receptor [16] = target: T3, h5-HT2A receptor; assay: Inhibition of 5-HT-stimulated IP-1 formation; assay type: cell-based
hNET [17] = target: T1, hNET; assay: Superfusion release of preloaded [3H]NE from HEK-hNET cells; assay type: cell-based
hSigma1 receptor = hSigma1 receptor (Homo sapiens, UniProt Q99720); assay: [3H]; assay type: binding; conditions: Inhibition of [3H]pentazocine binding Ki ± sem, hSigma1
Sequence of hSigma1 receptor (Q99720 whole entry, the tested form may be a part): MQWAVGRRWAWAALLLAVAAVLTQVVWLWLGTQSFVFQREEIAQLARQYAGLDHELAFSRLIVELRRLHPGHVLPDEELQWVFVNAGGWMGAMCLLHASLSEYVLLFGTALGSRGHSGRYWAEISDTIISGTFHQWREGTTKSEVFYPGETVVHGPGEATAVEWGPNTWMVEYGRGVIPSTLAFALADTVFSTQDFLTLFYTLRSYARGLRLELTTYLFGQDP

hVMAT2 [18] = target: T4, hVMAT2; assay: Superfusion release of preloaded [3H]NE from HEK-hVMAT2 cells; assay type: cell-based
hDAT [19] = target: T7, hDAT; assay: Superfusion release of preloaded [3H]DA from HEK-hDAT cells; assay type: cell-based

T1 sequence (P23975 whole entry, the tested form may be a part): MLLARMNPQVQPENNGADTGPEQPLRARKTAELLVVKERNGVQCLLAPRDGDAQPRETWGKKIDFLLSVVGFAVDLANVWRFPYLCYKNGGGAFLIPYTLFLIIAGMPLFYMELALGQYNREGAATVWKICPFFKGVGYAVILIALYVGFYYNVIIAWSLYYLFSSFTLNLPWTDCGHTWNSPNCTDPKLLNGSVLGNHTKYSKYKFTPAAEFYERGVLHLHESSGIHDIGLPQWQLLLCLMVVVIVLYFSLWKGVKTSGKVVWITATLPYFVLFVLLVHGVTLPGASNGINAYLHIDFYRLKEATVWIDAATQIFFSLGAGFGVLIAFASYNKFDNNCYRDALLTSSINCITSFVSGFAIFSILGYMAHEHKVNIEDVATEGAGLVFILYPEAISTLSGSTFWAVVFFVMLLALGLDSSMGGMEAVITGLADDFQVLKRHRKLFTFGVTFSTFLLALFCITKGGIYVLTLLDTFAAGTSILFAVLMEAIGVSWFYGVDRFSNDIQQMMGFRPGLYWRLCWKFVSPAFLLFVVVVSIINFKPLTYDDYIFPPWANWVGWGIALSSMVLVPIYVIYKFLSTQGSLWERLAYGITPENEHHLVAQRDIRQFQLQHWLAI
T2 sequence (P31645 whole entry, the tested form may be a part): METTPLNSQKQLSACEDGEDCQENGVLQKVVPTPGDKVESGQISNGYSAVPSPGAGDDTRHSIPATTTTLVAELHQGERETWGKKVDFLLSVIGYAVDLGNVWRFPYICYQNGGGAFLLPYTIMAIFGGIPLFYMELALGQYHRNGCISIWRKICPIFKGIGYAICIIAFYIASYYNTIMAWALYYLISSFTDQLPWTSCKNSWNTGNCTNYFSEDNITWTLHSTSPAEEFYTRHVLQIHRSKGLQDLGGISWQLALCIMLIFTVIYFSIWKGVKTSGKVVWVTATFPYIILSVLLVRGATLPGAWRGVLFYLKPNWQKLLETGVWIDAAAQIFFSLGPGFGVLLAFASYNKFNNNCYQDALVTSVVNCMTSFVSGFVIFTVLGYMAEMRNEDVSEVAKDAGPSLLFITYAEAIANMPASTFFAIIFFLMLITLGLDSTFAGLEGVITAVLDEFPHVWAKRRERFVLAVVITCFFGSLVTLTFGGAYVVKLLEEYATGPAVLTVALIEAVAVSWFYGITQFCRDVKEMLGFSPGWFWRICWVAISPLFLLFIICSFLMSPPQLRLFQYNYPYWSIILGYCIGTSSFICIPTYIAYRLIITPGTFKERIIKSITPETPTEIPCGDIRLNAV

CNC(C)C(=O)c1ccc2c(c1)OCO2 (stereo not shown) [Methylone, 3,4-methylenedioxy-N-methylcathinone]
IC50 (hNET [1]): 0.234 ± 0.055 µM | ratio of binding Ki to uptake IC50, hNET (hNET [1]; [125I]RTI-55 Ki / [3H]NE uptake IC50): 71 | % maximum release ± sem, hSERT [3H]5-HT (hSERT [2]): 78 ± 18% | EC50 (hSERT [2]): 6.7 ± 2.78 µM | time of peak [3H]5-HT release after addition of drug (hSERT [2]): about 6 min | postmortem blood concentration [3]: 0.06 to 3.3 mg/L | postmortem blood concentration (molar) [3]: 0.25 to 14 µM | Ki (h5-HT2A receptor [4]): 48.5 ± 8 µM | Ki (hVMAT2 [5]): > 1000 µM | Ki (h5-HT2C receptor [6]): 10.6 ± 1.8 µM | Ki (hNET [7]): 16.5 ± 4.9 µM | IC50 (hVMAT2 [8]): > 100 µM | Ki (hSERT [9]): 95.5 ± 4.3 µM | Ki (h5-HT1A receptor [10]): 63.3 ± 0.98 µM | IC50 (hSERT [11]): 1.92 ± 0.35 µM | ratio of binding Ki to uptake IC50, hSERT (hSERT [11]; [125I]RTI-55 Ki / [3H]5-HT uptake IC50): 50 | IC50 (h5-HT2C receptor [12]): > 1000 µM | h5-HT2C Inhibition of 5-HT-stimulated IP-1 formation % maximum inhibition ± sem (h5-HT2C receptor [12]; 100 nM 5-HT, normalized to maximal inhibition by SB242084 (1 µM)): 28.0 ± 7.5% | IC50 (hDAT [13]): 0.343 ± 0.024 µM | ratio of binding Ki to uptake IC50, hDAT (hDAT [13]; [125I]RTI-55 Ki / [3H]DA uptake IC50): 15 | EC50 (h5-HT1A receptor [14]): 143 ± 32 µM | Emax (h5-HT1A receptor [14]; read-out: h5-HT1A Stimulation of [35S]GTPγS binding % maximum stimulation ± sem): 47% | Ki (hDAT [15]): 5.02 ± 0.29 µM | IC50 (h5-HT2A receptor [16]): 159 ± 11 µM | h5-HT2A Inhibition of 5-HT-stimulated IP-1 formation % maximum inhibition ± sem (h5-HT2A receptor [16]; 100 nM 5-HT, normalized to maximal inhibition by ketanserin (10 µM)): 84.7 ± 5.2% | EC50 (hNET [17]): 0.426 ± 0.067 µM | time of peak [3H]NE release after addition of drug (hNET [17]): 8 to 16 min | % maximum release ± sem, hNET [3H]NE (hNET [17]; relative to maximal AUC induced by METH (0.3 or 1 µM)): 122 ± 32% | Ki (hSigma1 receptor): 25.5 ± 7.7 µM | EC50 (hVMAT2 [18]): > 100 µM | Release of [3H]NE % maximum release ± sem or range, hVMAT2 (hVMAT2 [18]): 21.8 ± 8.5% | Release of [3H]NE % maximum release ± sem or range, hVMAT2 (hVMAT2 [18]; listed as methylone): less than 35% | % maximum release ± sem, hDAT [3H]DA (hDAT [19]): 41 ± 12% | EC50 (hDAT [19]): 11.8 ± 5.6 µM | time of peak/maximal [3H]DA release after addition of drug (hDAT [19]; 4-FMC 10 µM to 300 µM, mephedrone 30 µM, methylone 100 µM): ≤ 6 min | fold less potent than METH to induce [3H]DA release (hDAT [19]; EC50 compared to METH): 30 fold | % maximum release ± sem, hDAT [3H]DA (hDAT [19]; listed as methylone): 41%
